Experimental data as given in patent US7998936B2, “Use of timosaponin Bll in the preparation of a medicament or product for the prevention and treatment of stroke” (Institute of Radiation Medicine, Academy of Military …, priority 2004, dated 2011).

How the values were obtained:
[1] = test system: Middle Cerebral Artery Thrombosis (MCAT) Rats; experiment: Water content in brain tissues in middle cerebral artery thrombosis rats; assay type: in vivo, rat; conditions: 24 h after operation, 12 mg/kg
[2] = test system: acute blood stagnation model rats; experiment: Whole blood and plasma viscosities in acute blood stagnation model rats; assay type: in vivo, rat; conditions: 12 mg/kg by gavage 5 days
Description: MAO Teng-min's methods were modified to prepare the model.

[3] = test system: acute blood stagnation model rats; experiment: Erythrocyte aggregation and deformability in acute blood stagnation model rats; assay type: in vivo, rat; conditions: 12 mg/kg
Description: MAO Teng-min's methods were modified to prepare the model. Rats were subcutaneously injected with 0.8 mg/kg adrenaline twice at 1 h and 5 h after administration on the fifth day, and were placed into ice-water at 4° C. for 5 min at 2 h after the first injection of adrenaline.
To 40 μl of heparinized blood, 1 ml of deforming solution was added and mixed thoroughly. A sample of 0.8 ml was tested in an erythrocyte aggregation/deformability tester, and erythrocyte deformability was expressed as maximal erythrocyte deformation index and area under curve (SSS). Another 0.8 ml of anticoagulated blood was tested in an erythrocyte aggregation/deformability tester, and erythrocyte aggregation was expressed as maximal erythrocyte aggregation index (MAXD) and area under curve ([…]).

IL-1β = experiment: ELISA of IL-1β in brain tissue of cerebral ischemia-reperfusion rats; conditions: brain homogenate, 12 mg/kg by gavage 5 days
TNF-α = experiment: ELISA of TNF-α in brain tissue of cerebral ischemia-reperfusion rats; conditions: brain homogenate, 12 mg/kg by gavage 5 days
IL-10 = experiment: ELISA of IL-10 in brain tissue of cerebral ischemia-reperfusion rats; conditions: brain homogenate, 12 mg/kg by gavage 5 days
TGF-β = experiment: ELISA of TGF-β in brain tissue of cerebral ischemia-reperfusion rats; conditions: brain homogenate, 12 mg/kg by gavage 5 days

COCCOC(=O)C1=C(C)NC(C)=C(C(=O)OC(C)C)C1c1cccc([N+](=O)[O-])c1 (stereo not drawn) [Nimodipine, reference compound]
Water content of affected hemisphere [1]: 80.37 ± 0.73 %
Water content of unaffected hemisphere [1]: 79.44 ± 0.41%
Plasma viscosity (100 S^−1) [2]: 1.41 ± 0.14
Whole blood viscosity 1 S^−1 [2]: 30.45 ± 8.74
Whole blood viscosity 5 S^−1 [2]: 12.34 ± 2.58
Whole blood viscosity 30 S^−1 [2]: 6.47 ± 0.92
Whole blood viscosity 200 S^−1 [2]: 4.51 ± 0.55
Erythrocyte aggregation SS ([3]; area under curve): 160.38 ± 16.50
Erythrocyte deformability SSS ([3]; area under curve): 353.92 ± 15.83
Erythrocyte aggregation MAXD ([3]; maximal erythrocyte aggregation index): 0.80 ± 0.09
Erythrocyte deformability MAXDI ([3]; maximal erythrocyte deformation index): 0.70 ± 0.03
IL-1β (IL-1β): 9.01 ± 0.81 pg/mL
TNFα (TNF-α): 7.92 ± 0.56 pg/mL
IL-10 (IL-10): 4.98 ± 3.54 pg/mL
TGF-β (TGF-β): 12.01 ± 2.54 pg/mL
